This is an account of results in ChEMBL document CHEMBL1201862, “PubChem BioAssay data set” (2004).

One experiment has as its target Large T antigen (Simian virus 40, UniProt P03070). Format: functional, Betapolyomavirus macacae.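 Further: Confirmatory-stage PubChem screen for compounds that inhibit SV40 T antigen.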
For experiment [1], the target named is T1, Replicative DNA helicase DnaB (Mycobacterium tuberculosis, UniProt P9WMR3).
T1 sequence (P9WMR3 whole entry): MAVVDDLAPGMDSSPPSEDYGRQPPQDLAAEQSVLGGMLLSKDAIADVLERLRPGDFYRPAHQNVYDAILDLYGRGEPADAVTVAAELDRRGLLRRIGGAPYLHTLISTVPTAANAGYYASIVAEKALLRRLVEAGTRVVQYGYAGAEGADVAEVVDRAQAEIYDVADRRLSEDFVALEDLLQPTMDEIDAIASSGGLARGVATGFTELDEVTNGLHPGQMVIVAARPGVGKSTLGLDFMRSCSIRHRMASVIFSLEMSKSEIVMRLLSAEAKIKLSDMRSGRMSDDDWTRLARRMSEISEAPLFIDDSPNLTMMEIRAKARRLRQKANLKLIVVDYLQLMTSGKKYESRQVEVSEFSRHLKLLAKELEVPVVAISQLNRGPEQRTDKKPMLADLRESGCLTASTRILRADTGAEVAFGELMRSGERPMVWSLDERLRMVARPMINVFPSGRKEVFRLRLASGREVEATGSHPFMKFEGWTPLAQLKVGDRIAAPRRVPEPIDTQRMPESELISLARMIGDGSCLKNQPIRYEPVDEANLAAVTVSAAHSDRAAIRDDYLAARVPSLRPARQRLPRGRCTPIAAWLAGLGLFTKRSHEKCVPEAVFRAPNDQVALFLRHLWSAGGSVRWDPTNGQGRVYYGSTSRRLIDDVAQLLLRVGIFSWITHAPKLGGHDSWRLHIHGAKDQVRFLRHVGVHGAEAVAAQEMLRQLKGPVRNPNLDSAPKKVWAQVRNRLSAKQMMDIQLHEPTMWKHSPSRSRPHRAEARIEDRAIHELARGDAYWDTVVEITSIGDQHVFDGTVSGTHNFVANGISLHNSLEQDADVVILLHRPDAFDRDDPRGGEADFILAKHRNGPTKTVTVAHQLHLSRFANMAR
Description: DnaB intein splicing inhibitors, dose response, biochemical, cell-free fluorescence (AID 449749). The class given is functional.

A further experiment addresses T2, Protein RecA (Mycobacterium tuberculosis, UniProt P9WHJ3).
T2 sequence (P9WHJ3 whole entry): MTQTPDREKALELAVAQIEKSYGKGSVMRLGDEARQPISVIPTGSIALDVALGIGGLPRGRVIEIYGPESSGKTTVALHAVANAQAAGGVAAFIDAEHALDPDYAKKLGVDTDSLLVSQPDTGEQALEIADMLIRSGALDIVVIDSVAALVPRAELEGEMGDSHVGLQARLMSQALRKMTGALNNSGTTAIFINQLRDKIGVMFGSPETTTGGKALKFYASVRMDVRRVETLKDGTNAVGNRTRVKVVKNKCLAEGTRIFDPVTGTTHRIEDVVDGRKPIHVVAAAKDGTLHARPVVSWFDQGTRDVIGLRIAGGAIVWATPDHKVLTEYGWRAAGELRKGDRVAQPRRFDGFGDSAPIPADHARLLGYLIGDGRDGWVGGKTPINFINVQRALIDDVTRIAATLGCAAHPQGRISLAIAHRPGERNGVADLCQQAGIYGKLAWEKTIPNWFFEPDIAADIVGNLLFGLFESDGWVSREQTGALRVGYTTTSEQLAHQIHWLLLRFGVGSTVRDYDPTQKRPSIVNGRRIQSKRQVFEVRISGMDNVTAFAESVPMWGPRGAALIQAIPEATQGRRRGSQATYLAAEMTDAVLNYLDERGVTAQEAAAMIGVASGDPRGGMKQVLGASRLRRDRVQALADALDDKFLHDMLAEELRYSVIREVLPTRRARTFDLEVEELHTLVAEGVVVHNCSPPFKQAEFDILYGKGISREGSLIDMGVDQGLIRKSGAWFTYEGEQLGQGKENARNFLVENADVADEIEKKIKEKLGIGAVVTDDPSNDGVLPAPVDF
Description: Fluorescence Cell-Free Homogeneous Dose Retest to Identify Inhibitors of RecA-Intein Splicing Activity. [Related pubchem assays (depositor defined):AID2097, AID2223, AID489010, AID492950]. Format: functional.

Experiment [2] is described as follows: inhibitors of intracellular T. cruzi replication, confirmation, NIH3T3 host cells, beta-gal luminescence (AID 2044).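 Further: intracellular parasites grown in NIH/3T3 mouse fibroblasts as host cells; luminescent beta-galactosidase reporter signal from transgenic T. cruzi replicating inside host cells; inhibitors lower the luminescence signal.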 The class given is functional, cell-based.
Experiment [3] can be described thus: cytotoxicity toward NIH3T3 fibroblasts, dose response, counter-screen, cell-based, ATP luminescence, mouse fibroblasts (AID 2010).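 Further: cells exposed to compound for about 90 hours before reading.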 The class given is functional. A general note: A counterscreen serves to expose hits that act by an unwanted route or on another target.
In the next experiment the target is Cytochrome P450 2D6 (Homo sapiens, UniProt P10635).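 Further: CYP2D6 member of a cytochrome P450 panel assay.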
Chain of Cytochrome P450 2D6 (P10635 whole entry): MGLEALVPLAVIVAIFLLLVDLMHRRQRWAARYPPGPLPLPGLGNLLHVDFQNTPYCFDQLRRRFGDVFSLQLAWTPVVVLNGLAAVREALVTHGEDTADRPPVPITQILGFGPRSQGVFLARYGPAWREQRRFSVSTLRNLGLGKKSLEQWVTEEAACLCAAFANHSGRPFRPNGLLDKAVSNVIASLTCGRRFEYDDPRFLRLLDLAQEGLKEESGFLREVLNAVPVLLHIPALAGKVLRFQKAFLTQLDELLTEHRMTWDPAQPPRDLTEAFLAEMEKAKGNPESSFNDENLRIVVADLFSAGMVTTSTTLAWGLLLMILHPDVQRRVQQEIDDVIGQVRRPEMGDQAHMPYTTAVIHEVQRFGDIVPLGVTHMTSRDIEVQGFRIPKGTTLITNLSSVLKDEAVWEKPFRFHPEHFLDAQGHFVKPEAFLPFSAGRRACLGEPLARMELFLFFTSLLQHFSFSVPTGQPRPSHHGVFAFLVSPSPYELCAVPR
For experiment [4], the target named is T3, Corticotropin-releasing factor receptor 2/Corticotropin-releasing factor-binding protein (Homo sapiens, UniProt P24387+Q13324).
T3 sequence (Q13324 whole entry): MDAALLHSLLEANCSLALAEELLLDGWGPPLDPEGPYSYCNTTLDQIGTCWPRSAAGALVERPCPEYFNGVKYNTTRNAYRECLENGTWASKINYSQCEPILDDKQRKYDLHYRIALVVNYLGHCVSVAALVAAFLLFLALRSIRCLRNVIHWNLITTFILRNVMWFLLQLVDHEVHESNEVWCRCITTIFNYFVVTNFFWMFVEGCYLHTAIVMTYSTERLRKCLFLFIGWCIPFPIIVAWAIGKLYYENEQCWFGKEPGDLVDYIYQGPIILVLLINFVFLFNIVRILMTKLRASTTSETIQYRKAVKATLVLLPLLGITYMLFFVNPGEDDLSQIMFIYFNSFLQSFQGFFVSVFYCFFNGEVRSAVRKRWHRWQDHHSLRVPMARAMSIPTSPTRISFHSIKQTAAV
T3 sequence (P24387 whole entry): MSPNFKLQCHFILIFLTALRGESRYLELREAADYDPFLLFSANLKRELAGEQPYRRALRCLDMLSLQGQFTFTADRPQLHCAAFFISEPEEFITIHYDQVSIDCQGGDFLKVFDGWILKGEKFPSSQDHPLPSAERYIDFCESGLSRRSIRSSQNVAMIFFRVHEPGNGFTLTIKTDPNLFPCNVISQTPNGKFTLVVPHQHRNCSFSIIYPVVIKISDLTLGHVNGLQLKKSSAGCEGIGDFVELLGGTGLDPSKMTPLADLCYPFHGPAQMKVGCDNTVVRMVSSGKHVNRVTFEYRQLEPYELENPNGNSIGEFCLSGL
As to the kind of experiment: activators of CRF receptor 2 with binding protein – uHTS hits, confirmation (AID 602473). Format: functional. The note with it: read-out: EC50_Mean.

Broadly, the IC50 is the concentration needed to halve the response being measured. As a reminder, the AC50 is the concentration giving half of the maximal activity seen.

SMILES strings stand for the structures. Calls of active or inactive are those of the source. For most assays here, no stated cut-off is given here; in the data, actives have a measured EC50 and inactives only a lower limit. Some results are limits rather than exact numbers.

Chain of Large T antigen (P03070 whole entry): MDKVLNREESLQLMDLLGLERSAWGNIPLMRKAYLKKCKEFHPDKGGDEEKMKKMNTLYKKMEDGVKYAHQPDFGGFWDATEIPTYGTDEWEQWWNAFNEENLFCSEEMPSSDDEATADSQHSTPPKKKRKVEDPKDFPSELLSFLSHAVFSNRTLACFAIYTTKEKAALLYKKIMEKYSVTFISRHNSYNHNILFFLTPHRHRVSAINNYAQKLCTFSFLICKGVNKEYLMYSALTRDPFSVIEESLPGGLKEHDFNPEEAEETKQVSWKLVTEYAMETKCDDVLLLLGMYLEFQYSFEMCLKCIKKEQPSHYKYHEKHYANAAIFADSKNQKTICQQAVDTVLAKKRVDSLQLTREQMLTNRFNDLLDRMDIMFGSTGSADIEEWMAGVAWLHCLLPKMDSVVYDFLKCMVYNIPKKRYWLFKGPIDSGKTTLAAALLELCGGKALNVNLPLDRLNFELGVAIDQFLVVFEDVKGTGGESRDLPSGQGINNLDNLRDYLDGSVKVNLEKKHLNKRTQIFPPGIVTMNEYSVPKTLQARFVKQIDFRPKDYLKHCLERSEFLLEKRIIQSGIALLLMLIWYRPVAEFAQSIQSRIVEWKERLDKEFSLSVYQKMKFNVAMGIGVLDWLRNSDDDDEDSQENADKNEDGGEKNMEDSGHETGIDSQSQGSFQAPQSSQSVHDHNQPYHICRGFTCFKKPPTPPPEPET

On to `Cn1c(=O)c2c(nc(S)n2Cc2ccc(Cl)cc2)n(C)c1=O`, for which the IC50 on Large T antigen was 16.2 µM (active).

Turning to `CCCc1[nH][nH]c(=O)c1C(c1cccc(Cl)c1)C(C#N)C#N` (configuration not stated), the AC50 in experiment [1] was > 380 µM (inactive). Also, the EC50 on Protein RecA was 0.755 µM (active).

Regarding `COc1cc(/C=N/NC(=O)C(=O)NCc2ccco2)ccc1O`, the IC50 at Large T antigen was 12.9 µM (active).

`Nc1ccc(O)c2ccccc12`: the concentration at half-maximal activity (AC50) in experiment [1] is 16 µM (active). Also, on Protein RecA, the EC50 was 10.1 µM (active).

`CC(=O)Nc1ccc(NC(=O)CSc2ncc(C(=O)Nc3ccc(F)cc3)c(=O)n2C)cc1`: the AC50 in experiment [1] is > 380 µM (inactive). Further, on Protein RecA, the EC50 is > 380 µM (inconclusive).

As to `C=CCn1c(SCC(C)=O)nc2scc(-c3ccco3)c2c1=O`, the IC50 at Large T antigen was 60.2 µM (active).

`Cc1ccc(S(=O)(=O)CCC(=O)c2cccc([N+](=O)[O-])c2)cc1`: the results for the EC50 in experiment [2] and in experiment [3] were 2.47 µM (active) and > 60 µM (not active), respectively.

Take `Cc1ccc(-c2nn(-c3cc(N4CCNCC4)ccc3[N+](=O)[O-])c(=O)c3ccccc23)cc1`: the EC50 is 2.04 µM (active) in experiment [2] and > 60 µM (inconclusive) in experiment [3].

Take `CCOC(=O)/C(=N\Nc1ccccc1Cl)N1CCN(c2ccccc2OC)CC1`: the EC50 in experiment [2] is 1.18 µM (active); in experiment [3], 33.7 µM (active).

Turning to `COc1cc(/C=C2/C(=O)N(c3ccccc3)N=C2C)ccc1OS(=O)(=O)c1ccccc1`, the AC50 in experiment [1] is 1.94 µM (active). The EC50 on Protein RecA was 1.5 µM (active).

As for `Cc1ccccc1-n1nc2c(c1NC(=O)c1ccc(S(=O)(=O)N(C)C)cc1)CSC2`, the AC50 on Cytochrome P450 2D6 is 28.2 µM (inconclusive).

For the molecule `CCC(=O)Oc1ccc(C(=O)Nc2cccc(C(=O)c3ccccc3)c2)cc1`, the AC50 in experiment [1] is 13.2 µM (active). Moreover, the EC50 on Protein RecA was 13.8 µM (active).

For the molecule `COc1ccccc1CNc1ncncc1-c1cccnc1`, on Cytochrome P450 2D6, the AC50 is 20 µM (inconclusive).

For `CC(C)c1ccc(C2C3=C(CC(C)(C)CC3=O)N=C3C2=C(O)c2ccccc23)cc1` (configuration not stated), the EC50 in experiment [2] is 1.68 µM (active); in experiment [3], > 60 µM (not active).

As to `O=C(Oc1ccc(Br)cc1C(=S)N1CCCCC1)c1cc([N+](=O)[O-])cc([N+](=O)[O-])c1`, the AC50 in experiment [1] was 23.9 µM (active). At Protein RecA, the EC50 was 1.71 µM (active).

For `CCOC(=O)N/N=C\c1ccc(OC(=O)c2ccco2)cc1`, in experiment [1], the AC50 was 17 µM (active). At Protein RecA, the EC50 was 14.5 µM (active).

Turning to `CC(C)(C)c1[nH]nc2c1C(c1ccoc1)C(C#N)=C(N)O2` (configuration not stated), the AC50 in experiment [1] is 20.4 µM (active). On Protein RecA, the EC50 is 3.58 µM (active).

Consider `NS(=O)(=O)c1ccc(/N=C/c2c(O)oc3ccccc3c2=O)cc1`, for which, in experiment [1], the AC50 was > 380 µM (inactive). For the same molecule, at Protein RecA, the EC50 was > 380 µM (inactive).

Take `CCCN1CCC[C@@H]2Cc3nc(N)ncc3C[C@H]21` [QUINELORANE]: the AC50 at Cytochrome P450 2D6 is 25.1 µM (inconclusive).

On to `CC(C)N1CCc2c(sc(NC(=O)c3ccc(S(=O)(=O)N4CCOCC4)cc3)c2C#N)C1`, for which, in experiment [4], the EC50 was 5.69 µM (active).

For `CCOC(=O)c1c(NC(=O)CSc2nnnn2C)sc(C)c1C`, the half-maximal activity concentration (AC50) at Cytochrome P450 2D6 was 25.1 µM (inconclusive).

As to `CCOc1ccc(C(c2c(C)n[nH]c2O)c2c(C)n[nH]c2O)cc1OCC`, the AC50 in experiment [1] is 0.412 µM (active). In addition, the EC50 on Protein RecA is 0.183 µM (active).

Take `COc1ccccc1/N=C/C=C1OC(C)(C)C(C)(C)O1`: the EC50 is 3.65 µM (active) in experiment [2] and > 60 µM (not active) in experiment [3].

In the case of `COC(=O)[C@@]1(Cc2ccccc2)[C@H]2c3cc(C(=O)N(C)C)n(Cc4ccsc4Br)c3C[C@H]2CN1C(=O)c1ccccc1`, the AC50 at Cytochrome P450 2D6 is 31.6 µM (inconclusive).

For the molecule `CCN1C(=O)C(=CC=CN(C)c2ccccc2)SC1=S`, in experiment [4], the EC50 is 6.59 µM (active).

In the case of `Cc1ccc(-[n+]2cc(=O)o[nH]2)cc1`, the AC50 on Cytochrome P450 2D6 is 1.58 µM (inconclusive).

`C=C(C)COc1ccc(-c2ncncc2-c2ccccc2OC)c(O)c1`: the EC50 in experiment [2] is 0.544 µM (active); in experiment [3], > 60 µM (not active).

For `Cc1cc(C(=O)CN2C(=O)c3ccccc3C2=O)c(C)n1C1CC1`, the AC50 in experiment [1] is > 380 µM (inactive). The EC50 on Protein RecA was > 380 µM (inactive).

Consider `CC1=NNC(=O)C1C(c1ccccc1)C(C#N)C#N` (configuration not stated), for which, in experiment [1], the AC50 was 5.23 µM (active). In addition, on Protein RecA, the EC50 is 3.84 µM (active).

For `Cc1ccccc1-c1cncnc1Nc1ccc(F)cc1`, at Cytochrome P450 2D6, the AC50 was 39.8 µM (inconclusive).

On to `COc1ccc([C@@H](C)c2cc3c(cc2O)OCO3)cc1`, for which the concentration at half-maximal activity (AC50) at Cytochrome P450 2D6 is 3.98 µM (inconclusive).

`Cc1ccc(-n2nnnc2CCl)cc1`: the AC50 in experiment [1] is 54.2 µM (active). The EC50 at Protein RecA was 7.8 µM (active).

Turning to `COC(=O)c1c(NC(=O)CN2CCC3(O)CCCCC3C2c2ccccc2OC)sc(C)c1C` (configuration not stated), the EC50 in experiment [4] was > 53 µM (inactive).

Turning to `N#C/C(=C(/O)c1ccc([N+](=O)[O-])s1)c1nc2ccccc2[nH]1`, the EC50 was 0.233 µM (active) in experiment [2] and 4.89 µM (active) in experiment [3].

As to `CCN(C(=O)CSc1ncccc1C(=O)Oc1cccc([N+](=O)[O-])c1)c1cccc(C)c1`, the AC50 in experiment [1] is 3.43 µM (active). The EC50 on Protein RecA was > 380 µM (inconclusive).

Take `O=C1COC(c2ccccc2O)=NN1CCCN1CCCC1`: the AC50 at Cytochrome P450 2D6 was 3.16 µM (inconclusive).

As for `CN1CCN(/N=C/c2ccc(-c3ccc([N+](=O)[O-])cc3Cl)o2)CC1`, the EC50 in experiment [2] was 0.474 µM (active); in experiment [3], > 60 µM (inconclusive).

As to `C/C=C/C(=O)Nc1cccc(C2=NOC3(C2)C[C@@H](C(N)=O)N(C(=O)c2cc([N+](=O)[O-])cc([N+](=O)[O-])c2C)C3)c1` (some centres not stated), the EC50 in experiment [4] is > 53 µM (inactive).

With `COc1ccc2[nH]c(C)c(CCN(Cc3cccs3)C(S)=Nc3cccc(F)c3)c2c1`, the EC50 in experiment [2] was 3.35 µM (active); in experiment [3], > 60 µM (not active).
